Patent US11478457B2, “Castration-resistant prostate cancer” (priority 2015, dated 2022)

Molecular target: T1, UDP-glucose dehydrogenase (Homo sapiens, UniProt O60701)
T1 sequence (O60701 1-494): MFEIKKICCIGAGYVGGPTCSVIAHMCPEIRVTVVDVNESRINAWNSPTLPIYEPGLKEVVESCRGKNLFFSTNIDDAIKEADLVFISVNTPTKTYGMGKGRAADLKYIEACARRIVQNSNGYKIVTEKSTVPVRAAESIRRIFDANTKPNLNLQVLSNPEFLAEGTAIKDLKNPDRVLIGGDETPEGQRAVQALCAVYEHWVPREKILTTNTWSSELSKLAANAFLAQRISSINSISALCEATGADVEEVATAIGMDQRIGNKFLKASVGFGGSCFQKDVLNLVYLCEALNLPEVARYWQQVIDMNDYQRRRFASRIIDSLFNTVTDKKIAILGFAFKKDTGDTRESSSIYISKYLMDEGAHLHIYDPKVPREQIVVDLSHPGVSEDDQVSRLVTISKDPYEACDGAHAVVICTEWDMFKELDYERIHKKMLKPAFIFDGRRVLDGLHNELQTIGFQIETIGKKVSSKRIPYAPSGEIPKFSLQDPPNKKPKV
Experiment: High throughput screening for inhibitors of UDP-glucose dehydrogenase (NADH fluorescence)
Type: biochemical
Details: not given

Row | SMILES | POC (Percent of Controls) [%]
1 | O=C([O-])c1ccccc1-c1c2cc(Br)c(=O)cc-2oc2[c]([Hg][OH])c([O-])c(Br)cc12.[Na+].[Na+] | 97

Same assay, conditions: compound plates 20 μL/well of 25 μg/mL compound in 2.5% DMSO; relative to DMSO negative and UDP-xylose positive controls; higher POC = more inhibitory; read-out: POC (Percent of Controls)

Row | SMILES | inhibition at 25 µg/mL (stock) [%]
2 | O=C1CC(Sc2nnnn2-c2ccccc2)C(=O)N1c1ccc([N+](=O)[O-])cc1 (stereo not drawn) | 73
3 | CCSc1sc(SC#N)cc1SC#N | 83
4 | CC(C)N(CCC#N)S(=O)(=O)c1ccccc1[N+](=O)[O-] | 81
5 | c1ccc(CNc2nc(-c3ccccc3)[n+](-c3ccccc3)s2)cc1 | 106
6 | N#CSC(C#N)Cc1ccccc1 (stereo not drawn) | 59
7 | N#CSC(C#N)Cc1cccc(Cl)c1 (stereo not drawn) | 74
8 | CCc1ccc(NC(Nc2ccc(CC)cc2)=C(S(=O)(=O)CC)S(=O)(=O)CC)cc1 | 47
9 | N#CSC(C#N)Cc1ccc([N+](=O)[O-])cc1 (stereo not drawn) | 80
10 | N#CSC(C#N)Cc1cccc([N+](=O)[O-])c1 (stereo not drawn) | 88
11 | N#Cc1ccc(Oc2ccc(C(=O)Nc3ccccc3)cc2)cc1 | 54
12 | Nc1ccc(Cc2ccc(N)c(O)c2)cc1O | 62
13 | CC1(C)CC(=O)C2=C(C1)OC(N)=C(C#N)C21CCCC1 | 126
14 | O=C(Nc1ccc([N+](=O)[O-])cc1)c1ccc(Br)o1 | 62
15 | CCCCC(NC(=O)c1cccc(Br)c1)C(=O)O (stereo not drawn) | 103
16 | COc1cc(/C=C(\C)[N+](=O)[O-])cc(OC)c1OC | 61
17 | CC/C(=C/c1ccc(O)c(OC)c1)[N+](=O)[O-] | 63
18 | COCc1cc(C(C)(C)C)c(O)c(O)c1C(C)(C)C | 56
19 | CN1CCc2c(sc(N)c2C#N)C1 | 55
20 | Nc1ncc(C2=C(Cl)C(O)C(Cl)=C(Cl)C2O)s1 (stereo not drawn) | 71
21 | N#CSc1cnc(NC2CCCCC2)s1 | 66
22 | O=C(/C=C/c1ccco1)c1ccc(NC(=O)c2ccco2)cc1 | 55
23 | NC(=O)c1c(NC(=O)C2CCCO2)sc2c1CCCCCC2 (stereo not drawn) | 74
24 | O=[N+]([O-])c1ccc2[nH]c(-c3ccco3)nc2c1 | 46
25 | Brc1ccc(C2Nc3ccccc3N2)o1 | 65
26 | c1ccc(Nc2nc(-c3ccccc3)[n+](-c3ccccc3)s2)cc1 | 52
27 | O=C1CC(Sc2nc3ccccc3s2)C(=O)N1c1ccccc1I (stereo not drawn) | 58

Row | SMILES | inhibition at 25 µg/mL (stock) [%]
28 | CN(C)c1ccc(NC(=O)C2C3C=CC(C3)C2C(=O)O)cc1 (stereo not drawn) | 56
29 | CCOc1ccc(N/C(=N/N)c2ccc3ccccc3n2)cc1 | 66
30 | O=C1CC(Sc2ccccn2)C(=O)N1c1cccc(Cl)c1Cl (stereo not drawn) | 49
31 | O=[N+]([O-])c1ccc(SCc2ccco2)c2cccnc12 | 57
32 | C[n+]1sc(Nc2ccccc2)nc1-c1ccccc1 | 58
33 | O=C(Nc1ccc2nc(-c3ccco3)c(-c3ccco3)nc2c1)N1CCOCC1 | 47
34 | Cc1ccc(OCCn2ccnc2)cc1 | 85
35 | O=C(Nc1nc2c(s1)CCCC2)c1cccs1 | 45
36 | O=C(O)COc1cccc(/C=C/[N+](=O)[O-])c1 | 67
37 | CCc1cccc(NC(=O)NC2CCCCC2)c1 | 45
38 | Cc1nnc(SC2CC(=O)N(c3ccc(Oc4ccccc4)cc3)C2=O)s1 (stereo not drawn) | 58
39 | O=C(CN1CCCCC1)Nc1ccc(S(=O)(=O)N2CCOCC2)cc1 | 48
40 | O=C(O[C@@H]1Cc2c(O)cc(O)cc2O[C@@H]1c1cc(O)c(O)c(O)c1-c1c([C@H]2Oc3cc(O)cc(O)c3C[C@H]2OC(=O)c2cc(O)c(O)c(O)c2)cc(O)c(O)c1O)c1cc(O)c(O)c(O)c1 | 73
41 | O=C(O[C@@H]1Cc2c(O)cc(O)cc2O[C@@H]1c1cc(O)c(=O)c2c(O)c(O)cc([C@H]3Oc4cc(O)cc(O)c4C[C@H]3OC(=O)c3cc(O)c(O)c(O)c3)c2c1)c1cc(O)c(O)c(O)c1 | 59
42 | O=C(O[C@@H]1Cc2c(O)cc(O)cc2O[C@@H]1c1cc(O)c(O)c(O)c1-c1c([C@H]2Oc3cc(O)cc(O)c3C[C@H]2O)cc(O)c(O)c1O)c1cc(O)c(O)c(O)c1 | 83
43 | O=C(Oc1cc(O)cc2c1C[C@@H](OC(=O)c1cc(O)c(O)c(O)c1)[C@@H](c1cc(O)c(O)c(O)c1)O2)c1cc(O)c(O)c(O)c1 | 67
44 | O=c1c(O)cc([C@H]2Oc3cc(O)cc(O)c3C[C@H]2O)cc2c([C@H]3Oc4cc(O)cc(O)c4C[C@H]3O)cc(O)c(O)c12 | 83
45 | O=C(O[C@@H]1Cc2c(O)cc(O)cc2O[C@@H]1c1cc(O)c(O)c(O)c1)c1cc(O)c(O)c(O)c1 | 76
46 | O=C(O[C@@H]1Cc2c(O)cc(O)cc2O[C@@H]1c1cc(O)c(=O)c2c(O)c(O)cc([C@H]3Oc4cc(O)cc(O)c4C[C@H]3O)c2c1)c1cc(O)c(O)c(O)c1 | 76
47 | CC(=O)Oc1cc(-c2coc3cc(OC(C)=O)c(OC(C)=O)c(OC(C)=O)c3c2=O)cc(OC(C)=O)c1OC(C)=O | 98
48 | O=c1c(-c2cc(O)c(O)c(O)c2)coc2cc(O)c(O)c(O)c12 | 98
49 | O=c1c(O)cccc2c([C@H]3Oc4cc(O)cc(O)c4C[C@H]3O)cc(O)c(O)c12 | 53
50 | O=c1c(O)c(-c2cc(O)c(O)c(O)c2)oc2cc(O)cc(O)c12 | 91
51 | O=C(OC[C@H]1O[C@H](OC(=O)c2cc(O)c(O)c(OC(=O)c3cc(O)c(O)c(O)c3)c2)[C@H](OC(=O)c2cc(O)c(O)c(OC(=O)c3cc(O)c(O)c(O)c3)c2)[C@@H](OC(=O)c2cc(O)c(O)c(OC(=O)c3cc(O)c(O)c(O)c3)c2)[C@@H]1OC(=O)c1cc(O)c(O)c(OC(=O)c2cc(O)c(O)c(O)c2)c1)c1cc(O)c(O)c(OC(=O)c2cc(O)c(O)c(O)c2)c1 | 69
52 | CC(C)c1cc2c(c(O)c1O)[C@@]1(C(=O)O)CCCC(C)(C)C1CC2 (stereo partly drawn) | 66

Second part, the compound after the results:

Row | inhibition at 25 µg/mL (stock) [%] | SMILES
53 | 61 | COc1ccc2[nH]cc(CCNC(=O)c3ccc([N+](=O)[O-])cc3)c2c1
54 | 46 | CCN(CC)c1ccc(N)c(C)c1
55 | 148 | Cc1ccc(S(=O)(=O)Nc2cccc3ccc(-n4nc(C)cc4C)nc23)cc1
56 | 72 | Nc1ccccc1S(=O)(=O)Nc1cccc2cccnc12
57 | 50 | Nc1ccc(S(=O)(=O)c2ccc(N)c(N)c2)cc1N
58 | 88 | Cc1cc(C)n(-c2ccc3cccc([N+](=O)[O-])c3n2)n1
59 | 46 | Nc1ccc(C(=O)c2ccc(N)c(N)c2)cc1N
60 | 61 | COc1ccc(NS(=O)(=O)c2cc(C(=O)Nc3ccc(C(=O)O)cc3)ccc2C)cc1
61 | 86 | COc1ccc(-c2nnc(N)o2)cc1
62 | 65 | COc1cc(/C=C2\C(C)=C([N+](=O)[O-])CS2(=O)=O)ccc1O
63 | 75 | Cc1sc(NC(=O)Cc2ccc([N+](=O)[O-])cc2)c(C(N)=O)c1C
64 | 51 | Cc1ccccc1-c1nnc(N)s1
65 | 51 | CC(=O)C1=C(C)NC(SCc2cccc([N+](=O)[O-])c2)=C(C#N)C1c1cccnc1 (stereo not drawn)
66 | 58 | CCc1c(C)sc(NC(=O)c2cccc([N+](=O)[O-])c2C)c1C(N)=O
67 | 50 | CCc1c(C)sc(NC(=O)c2ccoc2C)c1C(N)=O
68 | 103 | O=C(Nc1ccc2c(c1)OCCO2)c1cc2ccccc2o1
69 | 50 | Cc1cc(=O)n2ccc(N)c(O)c2n1
70 | 70 | COc1cc(NC(=O)COc2ccc(C)cc2C)ccc1NC(=O)c1ccco1
71 | 46 | O=C(Cc1ccccc1)c1ccc(O)c(O)c1O

Row | inhibition at 25 µg/mL (stock) [%] | SMILES
72 | 57 | COc1ccc(-c2ccc(CCC(=O)O)n2-c2ccc(O)cc2)cc1
73 | 46 | Cc1[nH]nc(-c2ccc(O)c(O)c2O)c1Oc1ccccc1
74 | 57 | COc1ccc(-c2ccc(CCC(=O)O)o2)cc1
75 | 62 | COc1ccc(-c2ccc(CCC(=O)O)[nH]2)cc1
76 | 82 | Cc1ccc(-c2ccc(CCC(=O)O)o2)cc1
77 | 51 | COCCN1C(=O)C(O)=C(C(=O)c2ccc(OC)c(C)c2)C1c1ccncc1 (stereo not drawn)
78 | 47 | CC(C)(C)C(=O)NCCNc1ccc([N+](=O)[O-])cc1
79 | 46 | Cc1cc(O)ccc1NC(=O)c1ccccc1
80 | 68 | COc1ccc(OC)c(N2C(=O)CC(Sc3nc4ccccc4s3)C2=O)c1 (stereo not drawn)
81 | 47 | Cc1ccc(-c2csc(N)c2C(N)=O)cc1C
82 | 46 | NC(=O)c1c(-c2cccs2)csc1N
83 | 47 | Cc1nnc(SC2CC(=O)N(c3ccc(Br)cc3)C2=O)s1 (stereo not drawn)
84 | 45 | COc1cc(-c2ccc(NC(=O)c3ccoc3C)c(OC)c2)ccc1NC(=O)c1ccoc1C
85 | 50 | CCC(=O)Nc1ccc(C(=O)Nc2ccc(Cl)cc2C(=O)O)cc1
86 | 51 | O=c1oc2cc(Br)c(O)c(Br)c2s1
87 | 73 | COC(=O)Oc1c(Cl)cc2oc(=O)sc2c1[N+](=O)[O-]
88 | 71 | O=C(O)c1cc(O)c(O)c(O)c1
89 | 73 | O=c1c(O)cccc2ccc(O)c(O)c12
90 | 96 | O=C1c2ccc(O)cc2O[C@H](c2cc(O)c(O)c(O)c2)[C@H]1O
